Target: T1, human PTP1B (Homo sapiens, UniProt P18031)
T1 construct: but without the carboxy-terminal hydrophobic region (corresponding to 1-299 aa); made in house; host or cells: Sf9 insect cells (Spodoptera frugiperda), Bac-to-Bac baculovirus system
T1 sequence (P18031 1-299): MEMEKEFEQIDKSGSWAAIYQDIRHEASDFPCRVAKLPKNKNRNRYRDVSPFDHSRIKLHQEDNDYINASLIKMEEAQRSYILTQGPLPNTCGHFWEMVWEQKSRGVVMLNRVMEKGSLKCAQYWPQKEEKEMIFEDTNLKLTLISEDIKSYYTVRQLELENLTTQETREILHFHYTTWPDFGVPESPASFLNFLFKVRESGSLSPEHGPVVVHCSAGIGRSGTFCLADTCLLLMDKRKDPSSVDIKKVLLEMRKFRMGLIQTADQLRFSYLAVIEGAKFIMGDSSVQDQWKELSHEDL
Experiment: PTP Assay PTP1B DiFMUP (enzymatic test for inhibition of a phosphatase)
Format: biochemical
Conditions: recombinant hPTP1B (aa 1-299, expressed in Sf9 cells); substrate DiFMUP per table head; read-out: IC-50 (μM) PTP Assay PTP1B DiFMUP

IC50: 0.7 µM
SMILES: O=C(O)c1cc(-c2csc(Nc3ccc(-c4ccccc4)cc3)n2)ccc1O [Example 17]

From patent publication US7741491B2, “Diphenylamine-substituted salicylthiazole derivatives and related compounds as phosphotyrosine phosphatase 1B (PTB1B) inhibitors for using as blood-sugar decreasing active ingredients for treating diabetes” (Sanofi-Aventis Deutschland GmbH, priority 2004, dated 2010)
